According to publication PMC4876673, “Antitrypanosomal activity of 5-nitro-2-aminothiazole-based compounds” (European Journal of Medicinal Chemistry, 2016):
Like-named read-outs stand apart in the source and are kept apart here.

What was measured:
[1] = system: T.b. rhodesiense, strain STIB 900 trypomastigotes; experiment: In vitro activity against T. b. rhodesiense, strain STIB 900 trypomastigotes; assay type: cell-based, Trypanosoma brucei rhodesiense; settings: for IC50: Trypanosoma brucei, read-out: T.b.r. IC50; for SI (T.b.r.): ratio IC50 in L6 cells/IC50 in T.b. rhodesiense
Procedure: (§1) Compounds in Table 1 were screened for antiparasitic activity against three trypanosomatids: T. cruzi, T. b. rhodesiense and Leishmania donovani. The concentration of compound that inhibits parasite growth by 50% (IC50) was calculated from dose response curves for each parasite (Table 1). In addition, compounds were tested for toxicity in L6 rat skeletal myoblasts, used as host cells for T. cruzi amastigotes, in order to calculate a selectivity index for each parasite (SI = IC50L6/IC50parasite) (Table 1).
(§2) In vitro activity against T. cruzi, T. b. rhodesiense, L. donovani and cytotoxicity assessment using L6 cells (rat skeletal myoblasts) was determined using a 96-well plate format as previously described. Data were analyzed with the graphic program Softmax Pro (Molecular Devices, Sunnyvale, CA, USA), which calculated IC50 values by linear regression from the sigmoidal dose inhibition curves.

[2] = system: T. cruzi, strain Tulahuen C4 amastigotes; experiment: In vitro activity against T. cruzi amastigotes in infected L6 cells; assay type: cell-based, Trypanosoma cruzi; settings: for IC50: Trypanosoma cruzi, T. cruzi Tulahuen C4 amastigotes in L6 cells, read-out: T. c. IC50; for SI (T. c.): ratio IC50 in L6 cells/IC50 in T. cruzi; for Bnz/comp: ratio of T. cruzi IC50 of benznidazole to that of the compound
Procedure: (§3) In vitro activity against T. cruzi, T. b. rhodesiense, L. donovani and cytotoxicity assessment using L6 cells (rat skeletal myoblasts) was determined using a 96-well plate format as previously described [38]. Data were analyzed with the graphic program Softmax Pro (Molecular Devices, Sunnyvale, CA, USA), which calculated IC50 values by linear regression from the sigmoidal dose inhibition curves.

[3] = system: L. donovani axenic, strain MHOM-ET-67/L82 amastigotes; experiment: In vitro activity against L. donovani axenic amastigotes; assay type: cell-based, Leishmania donovani; settings: for IC50: Leishmania donovani, L. donovani axenic amastigotes MHOM-ET-67/L82, read-out: L.d. IC50; for SI (L.d.): ratio IC50 in L6 cells/IC50 in L. donovani; for activity class against L. donovani: L. donovani amastigotes
Procedure: as §3

[4] = system: L6 cells (rat skeletal myoblasts); experiment: Cytotoxicity in the host L6 cells; assay type: cell-based; settings: read-out: Cyt. L6 IC50
Procedure: as §1, §2

T. b. brucei wild type = experiment: T. brucei brucei antiproliferating assay, wild type bloodstream form; assay type: cell-based; settings: Trypanosoma brucei, 72 h
Procedure: (§4) To further determine whether NTR plays a role in metabolizing the substrates within the parasite, the above subset of compounds were phenotypically screened against BSF T. b. brucei expressing wild type or elevated levels of TbNTR.
(§5) Where appropriate, induction of the TbNTR was carried out by adding tetracycline (1 μg/mL). After incubation for 3 days at 37 °C, resazurin (2.5 μg per well) was added to each well and the plates incubated for a further 8 h. The cell density of each culture was determined as described before [26] and the IC50 established.

[5] = system: TbNTR overexpressing T. b. brucei; experiment: microbe, parasite or virus in culture; assay type: cell-based, Trypanosoma brucei brucei; settings: for Ratio –tet/+tet: IC50 −tet / IC50 +tet; for IC50: Trypanosoma brucei
Procedure: as §4, §5

[6] = T.b. rhodesiense STIB 900 trypomastigotes
[7] = read-out: IC50 value T.b. brucei Wild type, BSF, wild type, 3 days
[8] = read-out: IC50 value T.b. brucei TbNTR (+tet)
[9] = read-out: IC50 value T.b. brucei TbNTR (−tet)

SMILES	IC50 [1, 6] [µM]	SI (T.b.r.) [1]	IC50 [2] [µM]	SI (T. c.) [2]	Bnz/comp [2]	IC50 [3] [µM]	SI (L.d.) [3]	IC50 [4] [µM]	IC50 (T. b. brucei wild type; [7]) [µM]	Ratio –tet/+tet [5]	IC50 [5, 8] [µM]	IC50 [5, 9] [µM]	melting point	IC50 (T. b. brucei wild type; BSF, wild type, 3 days, read-out: IC50 value T.b. brucei Wild type) [µM]	activity class against L. donovani [3]	IC50 [1] [µM]	fold less potent against T. cruzi than the corresponding 3-nitrotriazole-based analog ([2]; comparison with analogs of ref 24)
O=C(Nc1ncc([N+](=O)[O-])s1)c1ccc(-c2ccccc2)cc1 [Compound 8, N-(5-nitrothiazol-2-yl)-[1,1′-biphenyl]-4-carboxamide]	14.3	<1	2.52	2.6	0.9	104	<1	6.57	1.61 ± 0.396	2.1	2.18 ± 0.085	4.59 ± 0.149	> 230 °C	–	–	–	–
O=C(CN1CCN(c2ccc(Cl)c(Cl)c2)CC1)Nc1ncc([N+](=O)[O-])s1 [Compound 5, 2-(4-(3,4-dichlorophenyl)piperazin-1-yl)-N-(5-nitrothiazol-2-yl)acetamide]	10.8	4.2	1.53	30	1.4	7.55	6.1	45.7	1.36 ± 0.091	2.6	0.747 ± 0.075	1.96 ± 0.101	169 to 171 °C	–	–	–	–
CC1CS(=O)(=O)CCN1/N=C/c1ccc([N+](=O)[O-])o1 (stereo not shown) [nfx, nifurtimox, reference compound]	–	–	–	–	–	–	–	–	–	7.3	0.869 ± 0.046	6.36 ± 0.119	–	3.98 ± 0.15	–	–	–
O=C(CN1CCN(c2ccc(C(F)(F)F)cc2)CC1)Nc1ncc([N+](=O)[O-])s1 [Compound 3, N-(5-nitrothiazol-2-yl)-2-(4-(4-(trifluoromethyl)phenyl)piperazin-1-yl)acetamide]	8.42	5.6	1.73	27	1.3	12.7	3.7	47.1	1.02 ± 0.045	2.8	0.526 ± 0.024	1.46 ± 0.113	173 to 175 °C	–	–	–	–
Cc1ccc(N2CCN(CC(=O)Nc3ncc([N+](=O)[O-])s3)CC2)cc1 [Compound 2, N-(5-nitrothiazol-2-yl)-2-(4-(p-tolyl)piperazin-1-yl)acetamide]	14.4	8.8	9.31	14	0.2	41.4	3	126	–	–	–	–	160 to 161 °C (dec.)	–	–	–	–
O=C(CN1CCN(c2ccccn2)CC1)Nc1ncc([N+](=O)[O-])s1 [Compound 7, N-(5-nitrothiazol-2-yl)-2-(4-(pyridin-2-yl)piperazin-1-yl)acetamide]	13.3	2.2	4.97	5.9	0.4	64.9	<1	29.6	–	–	–	–	175 to 180 °C (dec.)	–	–	–	–
COc1ccc(N2CCN(CC(=O)Nc3ncc([N+](=O)[O-])s3)CC2)cc1 [Compound 4, 2-(4-(4-methoxyphenyl)piperazin-1-yl)-N-(5-nitrothiazol-2-yl)acetamide]	13.8	10	3.06	–	0.7	68.2	2.1	143	–	–	–	–	154 to 156 °C (dec.)	–	–	–	–
O=C(COc1cccc(Oc2ccccc2)c1)Nc1ncc([N+](=O)[O-])s1 [Compound 10, N-(5-nitrothiazol-2-yl)-2-(3-phenoxyphenoxy)acetamide]	31	1.8	34.6	1.6	0.1	5.4	10	54.9	–	–	–	–	151 to 153 °C	–	moderately active (between 1.0 and 6.0 μM)	–	–
O=C(COc1ccc(-c2ccccc2)cc1)Nc1ncc([N+](=O)[O-])s1 [Compound 11, 2-([1,1′-biphenyl]-4-yloxy)-N-(5-nitrothiazol-2-yl)acetamide]	40.8	1.3	18.4	3	0.1	10.5	5.2	54.9	3.75 ± 0.383	1.5	2.2 ± 0.1	3.25 ± 0.142	196 to 198 °C	–	–	–	–
Nc1nc(N)nc(Nc2ccc([As]3SCC(CO)S3)cc2)n1 (stereo not shown) [Melars., Melarsoprol, reference compound]	–	–	–	–	–	–	–	–	–	–	–	–	–	–	–	0.009 ± 0.001	–
O=C(CN1CCN(C(c2ccccc2)c2ccc(Cl)cc2)CC1)Nc1ncc([N+](=O)[O-])s1 (stereo not shown) [Compound 6, 2-(4-((4-chlorophenyl)(phenyl)methyl)piperazin-1-yl)-N-(5-nitrothiazol-2-yl)acetamide]	17.4	<1	0.571	23	3.8	3.39	3.8	12.9	1.47 ± 0.104	2.6	0.636 ± 0.022	1.64 ± 0.069	92 to 95 °C	–	moderately active (between 1.0 and 6.0 μM)	–	about 8 fold
O=C(COc1ccc(Oc2ccccc2)cc1)Nc1ncc([N+](=O)[O-])s1 [Compound 12, N-(5-nitrothiazol-2-yl)-2-(4-phenoxyphenoxy)acetamide]	28.4	–	32.6	–	0.1	5.4	–	52.7	–	–	–	–	–	–	moderately active (between 1.0 and 6.0 μM)	–	–
O=C(COc1cccc(-c2ccccc2)c1)Nc1ncc([N+](=O)[O-])s1 [Compound 9, 2-([1,1′-biphenyl]-3-yloxy)-N-(5-nitrothiazol-2-yl)acetamide]	28.7	1.7	22.8	2.2	0.1	4.27	12	49.4	–	–	–	–	148 to 150 °C	–	moderately active (between 1.0 and 6.0 μM)	–	–
